Structures can show the parent of a compound that is named as a salt.
Tests used:
[1] = system: Melochia parviflora (MEOPA); test: Field trial, post-emergence foliar application, weed control rating; assay type: in vivo; conditions: 58-62 days
Procedure: (§1) As described in the Herbicide Handbook of the Weed Science Society of America, Ninth Edition, 2007, p. […] In some embodiments, the damage or injury to the undesired vegetation caused by the compositions and methods disclosed herein is evaluated using a scale from 0% to 100%, when compared with the untreated control vegetation, wherein 0% indicates no damage to the undesired vegetation and 100% indicates complete destruction of the undesired vegetation. […] 22 (1967)
(§2) Field trials were conducted with applications made to established grassland with naturally occurring weed populations. The target plants were treated with postemergence foliar applications when they were at the beginning of flowering stage and 50 centimeters (cm) (19.7 inches (in)) tall for Senna obtusifolia plants and at the flowering stage and 70-90 cm (27.6-35.4 in) for Melochia parviflora plants. All treatments were applied using a randomized complete block trial design, with 4 replications per treatment.
(§3) Treatments consisted of aminocyclopyrachlor in acid form and the dimethylamine salt of 2,4-D, each in water and applied alone or in combination. Spray solutions were prepared using an appropriate amount of dilution to form a 2.4 liter (L) aqueous spray solution with active ingredients in single and two way combinations. Formulated compounds were applied to the plant material with a backpack sprayer equipped with 8003 nozzles calibrated to deliver 42.8 gallons per acre (gal/acre) (400 liters per hectare (L/ha)) at a spray height of 18-20 inches (45-51 centimeters (cm)) above average plant canopy.
(§4) The treated plants were Senna obtusifolia (CASOB, java bean), or Melochia parviflora (MEOPA). The treated plots and control plots were rated blind at various intervals after application. Ratings were based on a scale of 0-100%, as discussed above, wherein 0% indicates no damage to the undesired vegetation and 100% indicates complete destruction of the undesired vegetation
(§5) Colby's equation was used to determine the herbicidal effects expected from the mixtures, as described above. The results were measured at 42 days or 58-62 days after the first application of the compositions. […] The herbicide tank mix combinations tested, application rates and ratios employed, plant species tested, and results are given below.

[2] = system: Senna obtusifolia (CASOB, java bean); test: as above; assay type: in vivo
Procedure: as §1, §2, §3, §4, §5

SMILES	Mean % weed control ([1]; dimethylamine salt of 2,4-D alone 1120 g ae/ha) [%]	Mean % weed control ([2]; dimethylamine salt of 2,4-D alone 1120 g ae/ha, 42 days) [%]	Mean % weed control ([1]; aminocyclopyrachlor alone 35 g ae/ha) [%]	Mean % weed control ([1]; aminocyclopyrachlor alone 70 g ae/ha) [%]	Mean % weed control ([1]; aminocyclopyrachlor alone 140 g ae/ha) [%]	Mean % weed control ([1]; aminocyclopyrachlor alone 210 g ae/ha) [%]	Mean % weed control ([2]; aminocyclopyrachlor alone 35 g ae/ha, 42 days after application) [%]
O=C(O)COc1ccc(Cl)cc1Cl [Dimethylamine salt of 2,4-D, 2,4-dichlorophenoxyacetic acid]	24.4	64.3					
Nc1nc(C2CC2)nc(C(=O)O)c1Cl [Aminocyclopyrachlor, 6-amino-5-chloro-2-cyclopropylpyrimidine-4-carboxylic acid]			6.8	10.0	52.1	81.8	72.0

From patent US20140162879A1, “SYNERGISTIC WEED CONTROL FROM APPLICATIONS OF AMINOCYCLOPYRACHLOR AND 2,4 DICHLOROPHENOXYACETIC ACID (2,4-D)” (Dow AgroSciences LLC, priority 2012, published 2014)
